# ChEMBL document CHEMBL3612027, “Substrate-guided optimization of the syringolins yields potent proteasome inhibitors with activity against leukemia cell lines” (Bioorg Med Chem, 2015)
# Target: T1, Proteasome Macropain subunit MB1 (Homo sapiens) (UniProt P28074)
# T1 sequence (whole entry): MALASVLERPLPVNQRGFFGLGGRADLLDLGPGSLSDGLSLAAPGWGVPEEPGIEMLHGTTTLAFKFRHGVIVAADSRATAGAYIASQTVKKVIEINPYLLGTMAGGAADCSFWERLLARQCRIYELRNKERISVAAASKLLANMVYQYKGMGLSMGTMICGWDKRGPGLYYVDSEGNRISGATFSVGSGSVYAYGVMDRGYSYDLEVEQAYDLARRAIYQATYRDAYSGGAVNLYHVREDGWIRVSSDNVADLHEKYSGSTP
row,Compound,Kin [s⁻¹]
1,COC(=O)[C@@H](NC(=O)N[C@H](C(=O)N[C@H]1CCCCNC(=O)/C=C/[C@H](Cc2cc(F)cc(F)c2)NC1=O)C(C)C)C(C)C,0.0005
2,COC(=O)[C@@H](NC(=O)N[C@H](C(=O)N[C@H]1CCCCNC(=O)/C=C/[C@H](Cc2cccc(F)c2)NC1=O)C(C)C)C(C)C,0.000486

# Target: T2, Proteasome Macropain subunit MB1 (Homo sapiens, UniProt P28074)
# T2 sequence (P28074 whole entry): T1 sequence (whole entry)
# Assay: Inhibition of human 20S proteasome beta5 subunit using Suc-LLVY-AMC as substrate by fluorescence assay
row,Compound,Ki [nM]
1,COC(=O)[C@@H](NC(=O)N[C@H](C(=O)N[C@H]1CCCCNC(=O)/C=C/[C@H](Cc2ccccc2Cl)NC1=O)C(C)C)C(C)C,2110
2,COC(=O)[C@@H](NC(=O)N[C@H](C(=O)N[C@H]1CCCCNC(=O)/C=C/[C@H](Cc2ccccc2)NC1=O)C(C)C)C(C)C,743
3,COC(=O)[C@@H](NC(=O)N[C@H](C(=O)N[C@H]1CCCCNC(=O)/C=C/[C@H](Cc2cccc(C)c2)NC1=O)C(C)C)C(C)C,2350
4,COC(=O)[C@@H](NC(=O)N[C@H](C(=O)N[C@H]1CCCCNC(=O)/C=C/[C@H](Cc2ccc(Cl)cc2)NC1=O)C(C)C)C(C)C,1240
5,COC(=O)[C@@H](NC(=O)N[C@H](C(=O)N[C@H]1CCCCNC(=O)/C=C/[C@H](Cc2ccc(C)cc2)NC1=O)C(C)C)C(C)C,1140
6,COC(=O)[C@@H](NC(=O)N[C@H](C(=O)N[C@H]1CCCCNC(=O)/C=C/[C@H](Cc2cc(F)cc(F)c2)NC1=O)C(C)C)C(C)C,952
7,COC(=O)[C@@H](NC(=O)N[C@H](C(=O)N[C@H]1CCCCNC(=O)/C=C/[C@H](Cc2cccc(Cl)c2)NC1=O)C(C)C)C(C)C,963
8,COC(=O)[C@@H](NC(=O)N[C@H](C(=O)N[C@H]1CCCCNC(=O)/C=C/[C@H](Cc2cccc(C(F)(F)F)c2)NC1=O)C(C)C)C(C)C,7580
9,COC(=O)[C@@H](NC(=O)N[C@H](C(=O)N[C@H]1CCCCNC(=O)/C=C/[C@H](Cc2cccc(F)c2)NC1=O)C(C)C)C(C)C,592
10,COC(=O)[C@@H](NC(=O)N[C@H](C(=O)N[C@H]1CCCCNC(=O)/C=C/[C@H](Cc2ccccc2F)NC1=O)C(C)C)C(C)C,906
11,COC(=O)[C@@H](NC(=O)N[C@H](C(=O)N[C@H]1CCCCNC(=O)/C=C/[C@H](CC(C)C)NC1=O)C(C)C)C(C)C,3230
